Where two headings read alike, the source gives them in different places.
Test: Solubility of SAM compounds in water, visual observation after standing at 25° C. for one day
Assay type: physicochemical
Settings: for water solubility (summary in words): conclusion from Table 1; for solubility at 1 day: water, 25 °C, thermodynamic from solid, 25° C., one day, visual observation, read-out: Solubility (solvent (H2O) allowed to stand at 25° C. for one day)
Protocol: The mixtures were allowed to stand at 25° C. for one day, followed by observation. […] The symbol “x” indicates a resultant in which precipitation and sedimentation were observed, the symbol “Δ” indicates a resultant in which opacity was observed, and the symbol “◯” indicates a resultant having an achromatic and transparent color. • 16-Hydroxy-1-hexadecanethiol (Frontier Scientific) • 11-Hydroxy-1-undecanethiol (Aldrich) • 8-Hydroxy-1-octanethiol (Aldrich) • 6-Hydroxy-1-hexanethiol (Aldrich) • 11-Amino-1-undecanethiol, hydrochloride (Dojindo Laboratories) • 8-Amino-1-octanethiol, hydrochloride (Dojindo Laboratories) • 6-Amino-1-hexanethiol, hydrochloride (Dojindo Laboratories)

water solubility (summary in words) | solubility at 1 day (SAM concentration 0.1 mM) | solubility at 1 day (SAM concentration 1 mM) | solubility at 1 day (SAM concentration 5 mM) | solubility at 1 day (SAM concentration 20 mM) | Compound
good water solubility | > 0.1 mM | > 1 mM | > 5 mM | > 20 mM | Cl.NCCCCCCS [6-Amino-1-hexanethiol, hydrochloride]
good water solubility | > 0.1 mM | > 1 mM | > 5 mM | < 20 mM | OCCCCCCS [6-Hydroxy-1-hexanethiol]
good water solubility | > 0.1 mM | > 1 mM | > 5 mM | > 20 mM | Cl.NCCCCCCCCS [8-Amino-1-octanethiol, hydrochloride]
good water solubility | > 0.1 mM | > 1 mM | < 5 mM | < 20 mM | OCCCCCCCCS [8-Hydroxy-1-octanethiol]
 |  | < 1 mM | < 5 mM | < 20 mM | Cl.NCCCCCCCCCCCS [11-Amino-1-undecanethiol, hydrochloride]
 | < 0.1 mM | < 1 mM | < 5 mM | < 20 mM | OCCCCCCCCCCCS [11-Hydroxy-1-undecanethiol]
 | < 0.1 mM | < 1 mM | < 5 mM | < 20 mM | OCCCCCCCCCCCCCCCCS [16-Hydroxy-1-hexadecanethiol]
